The text below walks through data of patent US20260176289A1, “SMALL MOLECULE INHIBITORS OF KRAS PROTEINS” (Merck Sharp & Dohme LLC, priority 2022, published 2026).

One experiment deals with KRAS-WT (Homo sapiens, UniProt P01116). The experiment can be described thus: SOS-catalyzed nucleotide exchange assay (Procedure A, TR-FRET), KRAS-WT. The class given is biochemical. In a few lines: (§1)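 TR-FRET 520/495 nm ratio read after SOS-driven exchange of Bodipy-GDP for unlabeled GTP (3 mM) on biotinylated RAS bound to Tb-streptavidin. There was a 60 min compound preincubation, RT. Final RAS/SOS and reaction times: G12C 3 nM/40 nM; WT 1 nM/40 nM; NRAS 1.25 nM/40 nM, each 60 min. G12V was 1.25 nM/160 nM, 90 min.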
Sequence of KRAS-WT (P01116 with tags, fused parts or gaps isoform P01116-2): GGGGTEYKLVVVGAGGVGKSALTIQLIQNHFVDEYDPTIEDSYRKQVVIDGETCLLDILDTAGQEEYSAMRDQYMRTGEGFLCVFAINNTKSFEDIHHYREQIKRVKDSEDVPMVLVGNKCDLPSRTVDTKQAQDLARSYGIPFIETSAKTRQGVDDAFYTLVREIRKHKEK
Background: Time-resolved FRET reads energy transfer from a long-lived donor to a nearby acceptor.

For another experiment, the system named is MKN-1 cells. The experiment can be described thus: Cellular phospho-ERK assay, MKN-1 cells (amplified wild-type KRAS). Type of experiment: cell-based. The settings on record: Homo sapiens, read-out: MKN1 pERK IC50. The procedure:
(§2) Procedure for Cellular Phospho-ERK Assay in KRAS Wild Type and Mutant (G12D, G12V) Cell Lines
(§3) MKN-1 cells (JCRB JCRB0252) containing amplified wild-type KRAS, were cultured in growth medium that contains RPMI 1640-GlutaMAX™-I (ThermoFisher Scientific 61870) containing 10% heat inactivated fetal bovine serum (ThermoFisher Scientific 10091148), 1 mM sodium pyruvate and 10 mM HEPES. PANC08.13 cells (ATCC® CRL-2551™), containing homozygous KRAS-G12D activating mutation, were cultured in growth medium made of RPMI1640-GlutaMAX™-I (ThermoFisher Scientific 61870) containing 15% heat inactivated fetal bovine serum (ThermoFisher Scientific 10091148)). AsPC-1 cells (ATCC® CRL-1682™), containing homozygous KRAS-G12D activating mutation, were cultured in T150 flask in growth medium (RPMI medium 1640-GlutaMAX™-I (ThermoFisher Scientific 61870) containing 10% fetal bovine serum (ThermoFisher Scientific 10091148)). SW620 cells (ATCC® […]), containing homozygous KRAS-G12V activating mutation, were cultured in growth medium that contains RPMI 1640-GlutaMAX™-I (ThermoFisher Scientific 61870) containing 10% heat inactivated fetal bovine serum (ThermoFisher Scientific 10091148).
(§4) Cells for the assay were harvested in growth medium after TrypLE (ThermoFisher scientific 12604021) digestion and were seeded in a 384-well collagen coated cell culture plate (Corning 356702) at a density of 10,000-15,000 cells/20 μL/well, and incubated at 37° C., 5% CO2 overnight. The compound (with 10 mM stock concentration) dose-response titrations were prepared [30 μM final ERK detection assay concentration and 1:3 dilutions, 10-point dose response] and appropriate amounts (270 nL) of test compounds were dispensed in a 384-well intermediate plate using an Echo 550 liquid handler. 30 μL/well of RPMI medium 1640-GlutaMAX™—I was added to the intermediate plate and the contents of the intermediate plate (10 μL/well) were then transferred to the 384-well collagen coated cell culture plate, which was incubated at 37° C., 5% CO2 for 2 hours. After removal of medium from the collagen coated cell culture plate, cells were lysed in lysis buffer from Alpha SureFire® Ultra™ Multiplex p-ERK and total ERK assay kit (PerkinElmer MPSU-PTERK) containing Halt™ Protease and Phosphatase inhibitor cocktail (ThermoFisher Scientific 78446) at room temperature with constant shaking at 300 rpm for 30 minutes. The cell lysates were then transferred to an OptiPlate-384 plate (PerkinElmer 6005620), and the phosphorylation of ERK (p-ERK) and total ERK levels were detected by Alpha SureFire® Ultra™ Multiplex p-EEK kit and total ERK assay kit (PerkinElmer MPSU-PTERK) following the manufacturer's protocol. Assay plates were read on a En Vision Multimode Plate Reader (PerkinElmer), and the ratio of p-ERK vs. total ERK in each well was used as the final readout. Dose response curves were analyzed using a 4-parameter logistic model to calculate IC50 values using Spotfire software.

For the next experiment, the system named is SW620 cells. The experiment can be described thus: Cellular phospho-ERK assay, SW620 cells (homozygous KRAS-G12V). Type of experiment: cell-based. The settings on record: Homo sapiens, read-out: SW620 pERK IC50. The procedure:
as §2, §3, §4

A further experiment concerns the target KRAS-G12V (Homo sapiens, UniProt P01116, G12V). The experiment can be described thus: SOS-catalyzed nucleotide exchange assay (Procedure A, TR-FRET), KRAS-G12V. The class given is biochemical. In a few lines:
as §1

The target of the next experiment is KRAS-G12D (Homo sapiens, UniProt P01116, G12D). The experiment is described as follows: SOS-catalyzed nucleotide exchange assay (Procedure A, TR-FRET), KRAS-G12D. Type of experiment: biochemical. In a few lines:
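Signal ratio (520/495 nm, excitation 340 nm) reports Bodipy-GDP retention on biotinylated RAS after SOS-catalyzed exchange with 3 mM GTP. SOS was 40 nM, except 160 nM for G12V. Room-temperature exchange lasted 60 min (90 min for G12V), following a 60 min compound preincubation.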

A further experiment deals with AsPC-1 cells. The experiment can be described thus: Cellular phospho-ERK assay, AsPC-1 cells (homozygous KRAS-G12D). Type of experiment: cell-based. Particulars: Homo sapiens, read-out: AsPC1 pERK IC50. In short, it runs like this: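 10k–15k cells/well, o/n attach; cpd 2 h, 37 °C, 10-pt 1:3 from 30 μM final; lyse with protease/phosphatase inhibitors 30 min RT; multiplex SureFire p-ERK + total ERK; IC50 via 4PL on ratio.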

Setting [1] is: nucleotide exchange, read-out: KRAS WT GNE IC50.
Where [2] appears, read: SW-620, 2 hours compound incubation.
[3] abbreviates: nucleotide exchange, read-out: KRAS G12V GNE IC50.
The mark [4] stands for this setting: nucleotide exchange, read-out: KRAS G12D GNE IC50.
[5] abbreviates: ASPC1, 2 h, 2 hours compound incubation.
The mark [6] stands for this setting: amplified wild-type KRAS, 2 hours.

Where two headings read alike, the source gives them in different places.

Sequence of KRAS-G12V (P01116 with tags, fused parts or gaps isoform P01116-2 G12V): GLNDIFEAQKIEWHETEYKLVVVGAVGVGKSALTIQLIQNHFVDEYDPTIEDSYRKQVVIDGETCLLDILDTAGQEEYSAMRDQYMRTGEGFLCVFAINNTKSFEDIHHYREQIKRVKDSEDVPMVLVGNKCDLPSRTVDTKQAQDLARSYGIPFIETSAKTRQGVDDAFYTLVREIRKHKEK
Sequence of KRAS-G12D (P01116 with tags, fused parts or gaps isoform P01116-2 G12D): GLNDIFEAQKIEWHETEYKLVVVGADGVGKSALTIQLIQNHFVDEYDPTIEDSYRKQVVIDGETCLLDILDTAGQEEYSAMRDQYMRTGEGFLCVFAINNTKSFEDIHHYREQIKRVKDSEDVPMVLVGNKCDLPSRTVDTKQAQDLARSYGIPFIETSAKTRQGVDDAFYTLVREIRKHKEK

Broadly, the IC50 is the concentration that inhibits the measured activity by half. With `C/C=C1\CCCc2cc3[nH]ncc3c(-c3nccc4c3sc3nc(OC[C@@]56CCCN5C[C@H](F)C6)nc(N5CCOC[C@@](C)(O)C5)c34)c21` [Ex-174, (6S)-4-(8-((E)-5-ethyl-idene-5,6,7,8-tetrahydro-1H-benzo[f]indazol-4-yl)-2-(((2R,7aS)-2-fluoro-tetrahydro-1H-pyrrolizin-7a(5H)-yl)methoxy)pyr-ido[4′,3′:4,5]thieno[2,3-d]pyrimidin-4-yl)-6-meth-yl-1,4-oxazepan-6-ol], the IC50 was determined as 63.8 nM on KRAS-WT (setting [1]); 73.6 nM in the experiment on MKN-1 cells (2 hours compound incubation); 91.1 nM in the experiment with SW620 cells (setting [2]); 26.2 nM on KRAS-G12V (setting [3]); 23.6 nM on KRAS-G12D (setting [4]); 254 nM in the experiment with AsPC-1 cells (setting [5]).

Turning to `C[C@@]1(O)COCCN(c2nc(OC[C@@]34CCCN3C[C@H](F)C4)nc3sc4c(-c5c(-c6ccoc6)c(Cl)cc6[nH]ncc56)nccc4c23)C1` [Ex-71, (6S)-4-(8-(6-chloro-5-(furan-3-yl)-1H-indazol-4-yl)-2-(((2R,7aS)-2-fluorotetrahydro-1H-pyrrolizin-7a(5H)-yl)methoxy)pyrido[4′,3′:4,5]thi-eno[2,3-d]pyrimidin-4-yl)-6-methyl-1,4-oxazepan-6-ol], the half-maximal inhibitory concentration (IC50) at KRAS-WT (setting [1]) turned out to be 17.6 nM; with MKN-1 cells (setting [6]), 50.2 nM; with SW620 cells (SW-620, KRAS-G12V, 2 hours) it was 150 nM; at KRAS-G12V (setting [3]), 11.5 nM; on KRAS-G12D (setting [4]), 4 nM; with AsPC-1 cells (ASPC1, 2 h, KRAS-G12D, 2 hours), 66.4 nM.

On to `Cn1c2nc(OC[C@@]34CCCN3C[C@H](F)C4)nc(N3CCOC[C@@](C)(O)C3)c2c2ccnc(-c3c(C4(F)CC4)c(Cl)cc4[nH]ncc34)c21` (single isomer, unassigned) [Ex-3], for which the IC50 is 17.2 nM at KRAS-WT (setting [1]); 134 nM in the experiment with MKN-1 cells (setting [6]); 95.5 nM with SW620 cells (SW-620, KRAS-G12V, 2 hours); 15.3 nM on KRAS-G12V (setting [3]); 10.5 nM at KRAS-G12D (setting [4]); 207 nM with AsPC-1 cells (ASPC1, 2 h, KRAS-G12D, 2 hours).

For `C[C@@]1(O)COCCN(c2nc(OC[C@@]34CCCN3C[C@H](F)C4)nc3[se]c4c(-c5c(C6CC6)c(Cl)cc6[nH]ncc56)nccc4c23)C1` [Ex-289, (6S)-4-(8-(6-chloro-5-cyclopropyl-1H-indazol-4-yl)-2-(((2R,7aS)-2-fluorotetrahydro-1H-pyrrolizin-7a(5H)-yl)methoxy)pyri-do[4′,3′:4,5]seleno-pheno[2,3-d]pyrimidin-4-yl)-6-methyl-1,4-oxazepan-6-ol], the half-maximal inhibitory concentration (IC50) at KRAS-WT (KRAS WT GNE IC50, nucleotide exchange) was found to be 22.3 nM; in the experiment on MKN-1 cells (setting [6]) it was 81.4 nM; with SW620 cells (SW-620, KRAS-G12V, 2 hours), 64.6 nM; against KRAS-G12V (KRAS G12V GNE IC50, nucleotide exchange) it was 26.9 nM; at KRAS-G12D (KRAS G12D GNE IC50, nucleotide exchange), 6.97 nM; in the experiment on AsPC-1 cells (ASPC1, KRAS-G12D, 2 hours), 103 nM.

For `C[C@@]1(O)COCCN(c2nc(OC[C@@]34CCCN3C[C@H](F)C4)nc3sc4c(-c5c6c(cc7[nH]ncc57)CCC65CC5)nccc4c23)C1` [Ex-88, (6S)-4-(8-(6,7-dihydro-1H-spiro[cyclopenta[f]indazole-5,1′-cyclopropan]-4-yl)-2-(((2R,7aS)-2-fluorotetrahydro-1H-pyrrolizin-7a(5H)-yl)methoxy)pyrido[4′,3′:4,5]thi-eno[2,3-d]pyrimidin-4-yl)-6-methyl-1,4-oxazepan-6-ol], the IC50 on KRAS-WT (setting [1]) is 37.2 nM; in the experiment with MKN-1 cells (setting [6]) it was 122 nM; in the experiment with SW620 cells (SW-620, KRAS-G12V, 2 hours), 36.1 nM; at KRAS-G12V (setting [3]) it was 42.5 nM; on KRAS-G12D (setting [4]), 18.5 nM; in the experiment on AsPC-1 cells (ASPC1, 2 h, KRAS-G12D, 2 hours) it was 159 nM.

For `C[C@@]1(O)COCCN(c2nc(OC[C@@]34CCCN3C[C@H](F)C4)nc3c(Cl)c4c(-c5c(C6CC6)c(Cl)cc6[nH]ncc56)nccn4c23)C1` (single isomer, unassigned) [Ex-300], the half-inhibitory concentration (IC50) came out at 14.4 nM on KRAS-WT (setting [1]); 54.6 nM in the experiment on MKN-1 cells (setting [6]); 39.8 nM in the experiment on SW620 cells (SW-620, KRAS-G12V, 2 hours); 8.43 nM on KRAS-G12V (setting [3]); 6.53 nM on KRAS-G12D (setting [4]); 222 nM in the experiment with AsPC-1 cells (ASPC1, 2 h, KRAS-G12D, 2 hours).

As to `C[C@@]1(O)COCCN(c2nc(OC[C@@]34CCCN3C[C@H](F)C4)nc3sc4c(-c5c(C6(F)CC6)c(C(F)(F)F)cc6[nH]ncc56)nccc4c23)C1` [Ex-55, (6S)-4-(8-(5-(1-fluorocyclopropyl)-6-(trifluoromethyl)-1H-indazol-4-yl)-2-(((2R,7aS)-2-fluorotetrahydro-1H-pyrrolizin-7a(5H)-yl)methoxy)pyrido[4′,3′:4,5]thi-eno[2,3-d]pyrimidin-4-yl)-6-methyl-1,4-oxazepan-6-ol], the 50% inhibitory concentration (IC50) at KRAS-WT (setting [1]) turned out to be 26.4 nM; with MKN-1 cells (setting [6]), 45 nM; in the experiment with SW620 cells (SW-620, KRAS-G12V, 2 hours), 45.9 nM; on KRAS-G12V (setting [3]), 18.2 nM; at KRAS-G12D (setting [4]), 9.34 nM; in the experiment on AsPC-1 cells (ASPC1, 2 h, KRAS-G12D, 2 hours), 107 nM.

For `CCC1(O)COCCN(c2nc(OC[C@@]34CCCN3C[C@H](F)C4)nc3sc4c(-c5c(C(F)(F)F)c(C)cc6[nH]ncc56)nccc4c23)C1` (stereo partly drawn) [Ex-201, 6-ethyl-4-(2-(((2R,7aS)-2-fluorotetrahydro-1H-pyr-rolizin-7a(5H)-yl)meth-oxy)-8-(6-methyl-5-(tri-fluoromethyl)-1H-indazol-4-yl)pyrido[4′,3′:4,5]thieno[2,3-d]pyrimidin-4-yl)-1,4-oxazepan-6-ol], the half-maximal inhibitory concentration (IC50) at KRAS-WT (setting [1]) is 404 nM; in the experiment with MKN-1 cells (2 hours compound incubation), 373 nM; in the experiment on SW620 cells (setting [2]), 220 nM; on KRAS-G12V (setting [3]) it was 206 nM; on KRAS-G12D (setting [4]) it was 285 nM; in the experiment on AsPC-1 cells (setting [5]) it was 923 nM.

As to `C[C@@]1(O)COCCN(c2nc(OC[C@@]34CCCN3C[C@H](F)C4)nc3sc4c(-c5c(C6=CCC6)c(Cl)cc6[nH]ncc56)nccc4c23)C1` [Ex-70, (6S)-4-(8-(6-chloro-5-(cyclobut-1-en-1-yl)-1H-indazol-4-yl)-2-(((2R,7aS)-2-fluorotetrahydro-1H-pyrrolizin-7a(5H)-yl)methoxy)pyrido[4′,3′:4,5]thi-eno[2,3-d]pyrimidin-4-yl)-6-methyl-1,4-oxazepan-6-ol], the 50% inhibitory concentration (IC50) turned out to be 33.8 nM at KRAS-WT (setting [1]); 61.8 nM in the experiment on MKN-1 cells (setting [6]); 29.6 nM in the experiment with SW620 cells (SW-620, KRAS-G12V, 2 hours); 19.6 nM at KRAS-G12V (setting [3]); 6.5 nM on KRAS-G12D (setting [4]); 95.1 nM in the experiment with AsPC-1 cells (ASPC1, 2 h, KRAS-G12D, 2 hours).

Consider `CCC1c2c(cc3[nH]ncc3c2-c2nccc3c2sc2nc(OC[C@@]45CCCN4C[C@H](F)C5)nc(N4CCOC[C@@](C)(O)C4)c23)CC1(F)F` (single isomer, unassigned) [Ex-108], for which the IC50 at KRAS-WT (setting [1]) is 3.09 nM; in the experiment with MKN-1 cells (setting [6]) it was 28.9 nM; with SW620 cells (SW-620, KRAS-G12V, 2 hours), 20.9 nM; on KRAS-G12V (setting [3]) it was 5.41 nM; on KRAS-G12D (setting [4]), 1.52 nM; in the experiment on AsPC-1 cells (ASPC1, 2 h, KRAS-G12D, 2 hours), 50 nM.
